Test results as given in ChEMBL document CHEMBL3808371, “Design, synthesis and biological evaluation of diaziridinyl quinone isoxazole hybrids” (Eur J Med Chem, 2016).
Values after ≈ are worked out from the molar mass of the structure shown. Active and inactive are the calls of the source. No cut-off for these calls is given here.

Legend:
Format in all cases: functional
Candida parapsilosis [1] = assay: Antimicrobial activity against Candida parapsilosis MTCC 1744 after 24 hrs by well diffusion method; conditions: Lodderomyces parapsilosis, MTCC 1744, 24 h
[Candida] aaseri [2] = Antimicrobial activity against Candida aaseri MTCC 1962 after 24 hrs by well diffusion method; conditions: Yamadazyma aaseri, MTCC 1962, 24 h
Nakaseomyces glabratus [3] = assay: Antimicrobial activity against Candida glabrata MTCC 3019 after 24 hrs by well diffusion method; conditions: MTCC 3019, 24 h
Pichia kudriavzevii [4] = assay: Antimicrobial activity against Candida krusei MTCC 3020 after 24 hrs by well diffusion method; conditions: MTCC 3020, 24 h
Pichia sporocuriosa [5] = assay: Antimicrobial activity against Issatchenkia hanoiensis MTCC 4755 after 24 hrs by well diffusion method; conditions: MTCC 4755, 24 h
Candida albicans [6] = assay: Fungicidal activity against Candida albicans MTCC 183 after 24 hrs by serial dilution method; conditions: MTCC 183, 24 h
Candida albicans [7] = assay: Fungicidal activity against Candida albicans MTCC 227 after 24 hrs by serial dilution method; conditions: MTCC 227, 24 h
Candida albicans [8] = assay: Fungicidal activity against Candida albicans MTCC 854 after 24 hrs by serial dilution method; conditions: MTCC 854, 24 h
Candida albicans [9] = assay: Fungicidal activity against Candida albicans MTCC 1637 after 24 hrs by serial dilution method; conditions: MTCC 1637, 24 h
Candida albicans [10] = assay: Fungicidal activity against Candida albicans MTCC 3017 after 24 hrs by serial dilution method; conditions: MTCC 3017, 24 h
Candida albicans [11] = assay: Fungicidal activity against Candida albicans MTCC 3018 after 24 hrs by serial dilution method; conditions: MTCC 3018, 24 h
Candida albicans [12] = assay: Fungicidal activity against Candida albicans MTCC 3958 after 24 hrs by serial dilution method; conditions: MTCC 3958, 24 h
Candida albicans [13] = assay: Fungicidal activity against Candida albicans MTCC 4748 after 24 hrs by serial dilution method; conditions: MTCC 4748, 24 h
Candida albicans [14] = assay: Fungicidal activity against Candida albicans MTCC 7315 after 24 hrs by serial dilution method; conditions: MTCC 7315, 24 h
Candida parapsilosis [15] = assay: Fungicidal activity against Candida parapsilosis MTCC 1744 after 24 hrs by serial dilution method; conditions: Lodderomyces parapsilosis, MTCC 1744, 24 h
[Candida] aaseri [16] = Fungicidal activity against Candida aaseri MTCC 1962 after 24 hrs by serial dilution method; conditions: Yamadazyma aaseri, MTCC 1962, 24 h
Nakaseomyces glabratus [17] = assay: Fungicidal activity against Candida glabrata MTCC 3019 after 24 hrs by serial dilution method; conditions: MTCC 3019, 24 h
Pichia kudriavzevii [18] = assay: Fungicidal activity against Candida krusei MTCC 3020 after 24 hrs by serial dilution method; conditions: MTCC 3020, 24 h
Pichia sporocuriosa [19] = assay: Fungicidal activity against Issatchenkia hanoiensis MTCC 4755 after 24 hrs by serial dilution method; conditions: MTCC 4755, 24 h
Staphylococcus aureus [20] = assay: Antimicrobial activity against Staphylococcus aureus MTCC 96 after 24 hrs by well diffusion method
Bacillus subtilis = assay: Antimicrobial activity against Bacillus subtilis MTCC 121 after 24 hrs by well diffusion method
Staphylococcus aureus [21] = assay: Antimicrobial activity against Staphylococcus aureus MLS16 MTCC 2940 after 24 hrs by well diffusion method
Micrococcus luteus = assay: Antimicrobial activity against Micrococcus luteus MTCC 2470 after 24 hrs by well diffusion method
Raoultella planticola = assay: Antimicrobial activity against Klebsiella planticola MTCC 530 after 24 hrs by well diffusion method
Escherichia coli = assay: Antimicrobial activity against Escherichia coli MTCC 739 after 24 hrs by well diffusion method
Pseudomonas aeruginosa = assay: Antimicrobial activity against Pseudomonas aeruginosa MTCC 2453 after 24 hrs by well diffusion method
Candida albicans [22] = assay: Antimicrobial activity against Candida albicans MTCC 3017 after 24 hrs by well diffusion method; conditions: MTCC 3017, 24 h
Candida albicans [23] = assay: Antimicrobial activity against Candida albicans MTCC 183 after 24 hrs by well diffusion method; conditions: MTCC 183, 24 h
Candida albicans [24] = assay: Antimicrobial activity against Candida albicans MTCC 227 after 24 hrs by well diffusion method; conditions: MTCC 227, 24 h
Candida albicans [25] = assay: Antimicrobial activity against Candida albicans MTCC 854 after 24 hrs by well diffusion method; conditions: MTCC 854, 24 h
Candida albicans [26] = assay: Antimicrobial activity against Candida albicans MTCC 1637 after 24 hrs by well diffusion method; conditions: MTCC 1637, 24 h
Candida albicans [27] = assay: Antimicrobial activity against Candida albicans MTCC 3018 after 24 hrs by well diffusion method; conditions: MTCC 3018, 24 h
Candida albicans [28] = assay: Antimicrobial activity against Candida albicans MTCC 3958 after 24 hrs by well diffusion method; conditions: MTCC 3958, 24 h
Candida albicans [29] = assay: Antimicrobial activity against Candida albicans MTCC 4748 after 24 hrs by well diffusion method; conditions: MTCC 4748, 24 h
Candida albicans [30] = assay: Antimicrobial activity against Candida albicans MTCC 7315 after 24 hrs by well diffusion method; conditions: MTCC 7315, 24 h

For `Clc1ccc(COC(Cn2ccnc2)c2ccc(Cl)cc2Cl)c(Cl)c1` (stereo not given) [MICONAZOLE], the MIC (Candida parapsilosis [1]) was 7.8 µg/mL (≈ 18.7 µM), the MIC ([Candida] aaseri [2]) was 7.8 µg/mL (≈ 18.7 µM) and the MIC (Nakaseomyces glabratus [3]) was 7.8 µg/mL (≈ 18.7 µM). The MIC (Pichia kudriavzevii [4]) was 7.8 µg/mL (≈ 18.7 µM), the MIC (Pichia sporocuriosa [5]) was 7.8 µg/mL (≈ 18.7 µM) and the MFC (Candida albicans [6]) was 15.6 µg/mL (≈ 37.5 µM). The MFC (Candida albicans [7]) was 7.8 µg/mL (≈ 18.7 µM), the MFC (Candida albicans [8]) was 7.8 µg/mL (≈ 18.7 µM) and the MFC (Candida albicans [9]) was 15.6 µg/mL (≈ 37.5 µM). For the same compound, the MFC (Candida albicans [10]) was 15.6 µg/mL (≈ 37.5 µM), the MFC (Candida albicans [11]) was 15.6 µg/mL (≈ 37.5 µM) and the MFC (Candida albicans [12]) was 7.8 µg/mL (≈ 18.7 µM). The MFC (Candida albicans [13]) was 15.6 µg/mL (≈ 37.5 µM), the MFC (Candida albicans [14]) was 7.8 µg/mL (≈ 18.7 µM) and the MFC (Candida parapsilosis [15]) was 7.8 µg/mL (≈ 18.7 µM). It also gave an MFC ([Candida] aaseri [16]) of 7.8 µg/mL (≈ 18.7 µM), an MFC (Nakaseomyces glabratus [17]) of 15.6 µg/mL (≈ 37.5 µM) and an MFC (Pichia kudriavzevii [18]) of 7.8 µg/mL (≈ 18.7 µM). The MFC (Pichia sporocuriosa [19]) was 7.8 µg/mL (≈ 18.7 µM), the MIC (Staphylococcus aureus [20]) was “inactive” and the MIC (Bacillus subtilis) was “inactive”. The MIC (Staphylococcus aureus [21]) was “inactive”, the MIC (Micrococcus luteus) was “inactive” and the MIC (Raoultella planticola) was “inactive”. For the same compound, the MIC (Escherichia coli) was “inactive”, the MIC (Pseudomonas aeruginosa) was “inactive” and the MIC (Candida albicans [22]) was 7.8 µg/mL (≈ 18.7 µM). For the same compound, the MIC (Candida albicans [23]) was 7.8 µg/mL (≈ 18.7 µM), the MIC (Candida albicans [24]) was 7.8 µg/mL (≈ 18.7 µM) and the MIC (Candida albicans [25]) was 7.8 µg/mL (≈ 18.7 µM). The MIC (Candida albicans [26]) was 7.8 µg/mL (≈ 18.7 µM), the MIC (Candida albicans [27]) was 7.8 µg/mL (≈ 18.7 µM) and the MIC (Candida albicans [28]) was 7.8 µg/mL (≈ 18.7 µM). For the same compound, the MIC (Candida albicans [29]) was 7.8 µg/mL (≈ 18.7 µM) and the MIC (Candida albicans [30]) was 7.8 µg/mL (≈ 18.7 µM).
